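Tested at 5 concentrations; 48 h exposure; 96-well plates; endpoints linearly interpolated, else capped at highest concentration. At the GI50, growth is halved. TGI: concentration producing complete growth inhibition.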
What was measured:
Assay in all cases: NCI anticancer screen, dose series, 48 h
UACC-62 melanoma = tested on: UACC-62 melanoma
A549 NSCLC = tested on: A549 NSCLC
SK-MEL-28 melanoma = tested on: SK-MEL-28 melanoma
MOLT-4 leukemia = tested on: MOLT-4 leukemia
UACC-257 melanoma = tested on: UACC-257 melanoma
ACHN renal = tested on: ACHN renal
EKVX NSCLC = tested on: EKVX NSCLC
KM12 colon = tested on: KM12 colon
NCI-H226 lung = tested on: NCI-H226 lung
SK-MEL-2 melanoma = tested on: SK-MEL-2 melanoma

Compound	TGI (UACC-62 melanoma) [µM]	TGI (A549 NSCLC) [µM]	TGI (SK-MEL-28 melanoma) [µM]	TGI (MOLT-4 leukemia) [µM]	TGI (UACC-257 melanoma) [µM]	TGI (ACHN renal) [µM]	TGI (EKVX NSCLC) [µM]	TGI (KM12 colon) [µM]	TGI (NCI-H226 lung) [µM]	TGI (SK-MEL-2 melanoma) [µM]	GI50 (UACC-62 melanoma) [µM]	GI50 (A549 NSCLC) [µM]	GI50 (SK-MEL-28 melanoma) [µM]	GI50 (KM12 colon) [µM]	GI50 (NCI-H226 lung) [µM]	GI50 (MOLT-4 leukemia) [µM]	GI50 (UACC-257 melanoma) [µM]	GI50 (SK-MEL-2 melanoma) [µM]	GI50 (ACHN renal) [µM]	GI50 (EKVX NSCLC) [µM]
CCCCCCCCCOC(=S)NCCCCC	89	81.7	> 100	42.6	62.1	69.9	86.8	–	–	–	–	–	–	–	–	–	–	–	–	–
CCOC(=O)NC(=O)c1cn(CCN2CCNCC2)c(=O)[nH]c1=O	> 100	> 100	> 100	> 100	–	> 100	> 100	> 100	> 100	> 100	–	–	–	–	–	–	–	–	–	–
CC[C@@H](C)Nc1cc(C(=O)NC2CC3CCC(C2)N3c2ccc(C(=O)C3CC3)cn2)c(C)cc1C(N)=O (stereo partly specified)	12.1	> 100	> 100	31	32	> 100	–	0.0884	51.1	19	0.036	0.0343	0.0519	0.0239	0.0568	0.0374	0.04	0.0661	0.0441	–
COc1ccc(/C=c2/sc3n(c2=O)NC(c2ccc(Cl)cc2)NN=3)cc1 (stereo unspecified)	> 100	> 100	> 100	> 100	–	–	> 100	> 100	> 100	> 100	–	–	–	–	–	–	–	–	–	–
Cn1nc(-c2ccccc2)c(C(=O)/C=C/c2ccc(F)cc2)c(N2CCOCC2)c1=O	43	54.3	31.5	48.7	–	42.1	75	–	–	–	–	–	–	–	–	–	–	–	–	–
COC(=O)C1=C(O)[C@H](C(=O)OC)[C@]2(O)[C@@H](C(=O)OC)[C@H]1C[C@@H](c1ccc(OC(=O)/C=C/c3ccco3)cc1)[C@@H]2C(=O)OC	18.9	> 100	> 100	6.67	> 100	28.7	49.1	> 100	37.1	–	4.09	30.5	29.1	43.7	15.8	1.29	65.5	–	14.4	21.9
N#Cc1cc(NC(=O)c2ccccc2)c(=O)n2c1[nH]c1ccccc12	> 100	> 100	67.7	> 100	> 100	> 100	> 100	> 100	–	89.8	–	–	–	–	–	–	–	–	–	–
C=C1C(=O)OC2C1C(OC(=O)/C(C)=C\C)CC1(CO1)C1C(O)C=C(C)C21O (stereo unspecified)	5.81	40.6	13.2	11.8	21.7	13.9	26.5	24.4	–	12.5	–	–	–	–	–	–	–	–	–	–
Cc1cc(C)nc(NS(=O)(=O)c2ccc(NC(=O)c3ccc(Cl)c4c(Nc5ccc(S(=O)(=O)N=C(N)N)cc5)c5ccccc5nc34)cc2)n1	> 100	> 100	> 100	63.2	> 100	> 100	> 100	> 100	> 100	–	–	–	–	–	–	–	–	–	–	–
O=C(Nc1cccnc1)c1ccc2ccc3ccc(C(=O)Nc4cccnc4)nc3c2n1	> 100	> 100	> 100	> 100	–	> 100	> 100	> 100	> 100	> 100	0.205	0.135	0.324	0.0546	0.128	0.419	–	0.911	0.145	0.294
Cc1ccc(/C=C(\C#N)c2ccccc2)cc1	> 100	–	> 100	> 100	> 100	> 100	–	> 100	> 100	> 100	–	–	–	–	–	–	–	–	–	–
NNC(=O)N/N=C1\C(=O)N(c2nccs2)C(=O)C(=O)C1c1nc2ccccc2s1 (stereo unspecified)	> 100	> 100	> 100	–	> 100	> 100	> 100	> 100	> 100	> 100	–	–	–	–	–	–	–	–	–	–
CCCCCCCCCCCCCC(=O)OCC1OC(n2cc(F)c(=O)[nH]c2=O)C(N)C(OC(=O)CCCCCCCCCCCCC)C1O (stereo unspecified)	> 100	> 100	> 100	> 100	> 100	> 100	> 100	> 100	–	> 100	–	–	–	–	–	–	–	–	–	–
NNC(=S)Nc1cccc(Cl)c1	> 100	> 100	> 100	> 100	> 100	> 100	> 100	> 100	–	> 100	–	–	–	–	–	–	–	–	–	–
CC(=O)C1CCC2C3CC=C4CC(SC(=N)N)CCC4(C)C3CCC12C (stereo unspecified)	–	3.61	–	4.19	3.34	–	6.88	–	9.26	–	–	1.82	–	–	2.9	1.78	1.69	–	–	1.43
CC(C)CCC(=O)[C@@H](C)[C@H]1[C@@H](OC2OCC(O)C(O)C2NS(C)(=O)=O)C[C@H]2[C@@H]3CC=C4C[C@@H](O)CC[C@]4(C)[C@H]3CC[C@]12C (stereo partly specified)	1.95	11.5	1.53	2.57	2.31	11.6	8.85	11	–	2.27	0.79	3.55	0.53	2.77	–	0.827	0.922	0.739	2.15	1.46
CN(C)CCC1(C2=CCCC2)CC/C(=C\c2ccccc2Cl)C1=O (stereo unspecified)	29.8	28.4	26.2	18.3	28.4	31.1	29.3	27.3	–	27.6	–	–	–	–	–	–	–	–	–	–
CCc1nc2cc(/C=C/C(=O)NO)ccc2c(=O)n1CCc1ccc(F)cc1	–	4.58	4.15	> 100	5.92	3.27	7.21	14.3	4.59	6.59	–	1.72	1.85	2.2	1.71	1.79	2.24	2.9	1.5	2.44
